Results as given in ChEMBL document CHEMBL6134891, “Thienopyrimidinone Derivatives as a GluN2B/C/D Biased, Positive Allosteric Modulator of the N-Methyl-d-Aspartate Receptor” (J Med Chem, 2025).
pEC50, pKi: −log10 of the molar value. Converted amounts (≈) assume the structure as drawn.

Columns and labels:
Glutamate NMDA receptor = test: Positive allosteric modulation of NMDAR in rat hippocampal neurons by Whole-cell and excised-patch recording method; details: hippocampal neuron
[1] = biological target: T1, Glutamate receptor ionotropic, NMDA 2B (Homo sapiens, UniProt Q05586+Q13224); test: Positive allosteric modulation of GluN2B receptor (unknown origin) expressed in Doxycycline-inducible HEK293 cells by calcium influx assay
[2] = biological target: T2, Glutamate receptor ionotropic, NMDA 2C (Homo sapiens, UniProt Q05586+Q14957); test: Positive allosteric modulation of GluN2C receptor (unknown origin) expressed in Doxycycline-inducible HEK293 cells by calcium influx assay
[3] = biological target: T3, Glutamate receptor ionotropic, NMDA 2D (Homo sapiens, UniProt O15399+Q05586); test: Positive allosteric modulation of GluN2D receptor (unknown origin) expressed in Doxycycline-inducible HEK293 cells by calcium influx assay
[4] = biological target: T4, Glutamate receptor ionotropic, NMDA 2A (Homo sapiens, UniProt Q05586+Q12879); test: Positive allosteric modulation of GluN2A receptor (unknown origin) expressed in Doxycycline-inducible HEK293 cells by calcium influx assay
[5] = biological target: T5, Glutamate receptor ionotropic, NMDA 2D (Rattus norvegicus, UniProt P35439+Q62645)
Description: (§1) Positive allosteric modulation of recombinant rat GluN2D receptor expressed in Xenopus oocytes assessed as glutamate/glycine-induced potentiation of current by 2EVC method

[6] = biological target: T6, Glutamate receptor ionotropic, NMDA 2C (Rattus norvegicus, UniProt P35439+Q00961)
Description: (§2) Positive allosteric modulation of recombinant rat GluN2C receptor expressed in Xenopus oocytes assessed as glutamate/glycine-induced potentiation of current by 2EVC method

[7] = biological target: T7, Glutamate receptor ionotropic, NMDA 2B (Rattus norvegicus, UniProt P35439+Q00960)
Description: (§3) Positive allosteric modulation of recombinant rat GluN2B receptor expressed in Xenopus oocytes assessed as glutamate/glycine-induced potentiation of current by 2EVC method

[8] = Kinetic solubility of compound in PBS at pH 7.3 by nephelometry
in vitro = details: human, liver microsomes
Description: Intrinsic clearance in human liver microsomes at 3 uM preincubated for 5 mins followed by NADPH addition measured up to 30 mins by LC-MS/MS analysis

[9] = Stability in rat plasma assessed as half life
[10] = Stability in mouse plasma assessed as half life
[11] = biological target: T6, Glutamate receptor ionotropic, NMDA 2C; remark: listed apart in the source
Description: Positive allosteric modulation of recombinant rat GluN2C receptor expressed in Xenopus laevis stage VI oocytes assessed as glutamate/glycine-induced potentiation of current by 2EVC method

[12] = biological target: T7, Glutamate receptor ionotropic, NMDA 2B; remark: listed apart in the source
Description: Positive allosteric modulation of recombinant rat GluN2B receptor expressed in Xenopus laevis stage VI oocytes assessed as glutamate/glycine-induced potentiation of current by 2EVC method

[13] = Stability in human plasma assessed as half life
[14] = biological target: T5, Glutamate receptor ionotropic, NMDA 2D; remark: listed apart in the source
Description: Positive allosteric modulation of recombinant rat GluN2D receptor expressed in Xenopus laevis stage VI oocytes assessed as glutamate/glycine-induced potentiation of current by 2EVC method

[15] = biological target: Glutamate receptor ionotropic, NMDA 2B (Rattus norvegicus, UniProt Q00960); details: oocyte
Description: as §3

[16] = biological target: Glutamate receptor ionotropic, NMDA 2D (Rattus norvegicus, UniProt Q62645); details: oocyte
Description: as §1

[17] = biological target: Glutamate receptor ionotropic, NMDA 2C (Rattus norvegicus, UniProt Q00961); details: oocyte
Description: as §2

[18] = Efflux ratio of apparent permeability in MDCK-MDR1 cells; details: dog
[19] = Apparent permeability in MDCK-MDR1 cells; details: dog
Translocator protein = Translocator protein (Homo sapiens, UniProt P30536); test: Inhibition of peripheral benzodiazepine receptor (unknown origin) by radioligand binding assay
[20] = biological target: T4, Glutamate receptor ionotropic, NMDA 2A; test: Positive allosteric modulation of GluN2A receptor (unknown origin)
[21] = biological target: T2, Glutamate receptor ionotropic, NMDA 2C; test: Positive allosteric modulation of GluN2C receptor (unknown origin)
[22] = biological target: T3, Glutamate receptor ionotropic, NMDA 2D; test: Positive allosteric modulation of GluN2D receptor (unknown origin)
[23] = biological target: T2, Glutamate receptor ionotropic, NMDA 2C; test: Positive allosteric modulation of human GluN2C receptor expressed in HEK293 cells by Whole-cell patch-clamp method
[24] = biological target: T1, Glutamate receptor ionotropic, NMDA 2B; test: Positive allosteric modulation of human GluN2B receptor expressed in HEK293 cells by Whole-cell patch-clamp method

T2 sequence (Q14957 whole entry, one chain of several): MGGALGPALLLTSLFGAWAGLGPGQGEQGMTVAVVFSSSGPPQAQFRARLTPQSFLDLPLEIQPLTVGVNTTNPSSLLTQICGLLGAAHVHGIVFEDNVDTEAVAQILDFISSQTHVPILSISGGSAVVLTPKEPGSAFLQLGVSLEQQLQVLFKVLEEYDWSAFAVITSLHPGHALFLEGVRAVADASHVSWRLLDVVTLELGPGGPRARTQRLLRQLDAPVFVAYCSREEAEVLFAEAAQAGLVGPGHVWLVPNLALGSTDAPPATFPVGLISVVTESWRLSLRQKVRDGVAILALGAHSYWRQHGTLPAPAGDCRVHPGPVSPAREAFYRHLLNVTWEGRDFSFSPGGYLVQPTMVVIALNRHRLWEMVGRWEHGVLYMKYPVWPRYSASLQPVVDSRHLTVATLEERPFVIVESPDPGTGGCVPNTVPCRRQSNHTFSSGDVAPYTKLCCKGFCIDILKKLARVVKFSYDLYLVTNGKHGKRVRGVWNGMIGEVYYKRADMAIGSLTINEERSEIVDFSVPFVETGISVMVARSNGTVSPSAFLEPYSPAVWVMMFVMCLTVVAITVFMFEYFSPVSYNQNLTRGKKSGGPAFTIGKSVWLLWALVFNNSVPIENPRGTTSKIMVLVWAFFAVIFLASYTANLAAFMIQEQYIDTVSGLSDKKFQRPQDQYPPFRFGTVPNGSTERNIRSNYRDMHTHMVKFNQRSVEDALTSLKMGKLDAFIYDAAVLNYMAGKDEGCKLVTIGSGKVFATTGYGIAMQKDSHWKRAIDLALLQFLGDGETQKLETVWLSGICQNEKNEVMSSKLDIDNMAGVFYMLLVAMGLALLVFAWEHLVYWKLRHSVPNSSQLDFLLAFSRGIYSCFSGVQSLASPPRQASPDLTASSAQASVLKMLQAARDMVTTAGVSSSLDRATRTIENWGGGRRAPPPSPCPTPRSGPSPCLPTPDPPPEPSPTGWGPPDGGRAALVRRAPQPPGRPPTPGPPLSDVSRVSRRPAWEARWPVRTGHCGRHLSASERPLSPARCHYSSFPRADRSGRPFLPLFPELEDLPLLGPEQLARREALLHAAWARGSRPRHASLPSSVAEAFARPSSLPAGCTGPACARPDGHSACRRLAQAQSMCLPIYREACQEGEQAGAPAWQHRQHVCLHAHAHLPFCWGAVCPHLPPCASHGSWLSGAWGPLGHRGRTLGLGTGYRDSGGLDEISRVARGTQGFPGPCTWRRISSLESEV
T6 sequence (Q00961 whole entry, one chain of several): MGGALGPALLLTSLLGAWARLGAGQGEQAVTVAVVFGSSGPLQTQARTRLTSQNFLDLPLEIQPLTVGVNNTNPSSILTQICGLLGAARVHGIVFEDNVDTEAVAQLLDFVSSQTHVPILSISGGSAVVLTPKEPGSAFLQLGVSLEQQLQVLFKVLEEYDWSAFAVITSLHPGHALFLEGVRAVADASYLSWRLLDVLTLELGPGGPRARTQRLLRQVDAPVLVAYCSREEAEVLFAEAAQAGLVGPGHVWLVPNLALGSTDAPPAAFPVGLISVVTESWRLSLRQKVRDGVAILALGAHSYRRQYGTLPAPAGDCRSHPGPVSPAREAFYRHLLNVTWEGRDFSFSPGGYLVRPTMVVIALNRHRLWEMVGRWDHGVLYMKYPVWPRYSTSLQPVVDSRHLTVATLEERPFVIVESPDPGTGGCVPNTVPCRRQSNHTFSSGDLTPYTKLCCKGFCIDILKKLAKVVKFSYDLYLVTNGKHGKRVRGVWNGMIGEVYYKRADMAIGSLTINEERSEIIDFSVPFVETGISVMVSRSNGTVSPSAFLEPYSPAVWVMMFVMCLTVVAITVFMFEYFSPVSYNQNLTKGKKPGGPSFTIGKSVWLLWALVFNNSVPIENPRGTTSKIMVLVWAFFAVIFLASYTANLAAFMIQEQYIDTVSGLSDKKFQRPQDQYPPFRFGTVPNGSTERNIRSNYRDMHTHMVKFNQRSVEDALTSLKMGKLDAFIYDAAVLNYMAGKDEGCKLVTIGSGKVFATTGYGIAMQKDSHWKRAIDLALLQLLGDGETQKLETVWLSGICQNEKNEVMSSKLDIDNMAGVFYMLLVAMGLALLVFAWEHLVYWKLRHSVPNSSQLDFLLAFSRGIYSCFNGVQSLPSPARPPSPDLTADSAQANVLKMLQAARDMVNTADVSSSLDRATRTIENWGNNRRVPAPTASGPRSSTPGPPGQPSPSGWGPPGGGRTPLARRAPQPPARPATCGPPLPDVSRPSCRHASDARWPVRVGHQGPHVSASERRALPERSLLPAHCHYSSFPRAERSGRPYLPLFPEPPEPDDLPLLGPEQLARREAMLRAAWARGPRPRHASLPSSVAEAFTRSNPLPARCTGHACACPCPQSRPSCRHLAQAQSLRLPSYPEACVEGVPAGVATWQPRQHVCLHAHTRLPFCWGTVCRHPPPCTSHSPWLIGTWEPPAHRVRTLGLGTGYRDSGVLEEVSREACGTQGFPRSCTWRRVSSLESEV
T7 sequence (Q00960 whole entry, one chain of several): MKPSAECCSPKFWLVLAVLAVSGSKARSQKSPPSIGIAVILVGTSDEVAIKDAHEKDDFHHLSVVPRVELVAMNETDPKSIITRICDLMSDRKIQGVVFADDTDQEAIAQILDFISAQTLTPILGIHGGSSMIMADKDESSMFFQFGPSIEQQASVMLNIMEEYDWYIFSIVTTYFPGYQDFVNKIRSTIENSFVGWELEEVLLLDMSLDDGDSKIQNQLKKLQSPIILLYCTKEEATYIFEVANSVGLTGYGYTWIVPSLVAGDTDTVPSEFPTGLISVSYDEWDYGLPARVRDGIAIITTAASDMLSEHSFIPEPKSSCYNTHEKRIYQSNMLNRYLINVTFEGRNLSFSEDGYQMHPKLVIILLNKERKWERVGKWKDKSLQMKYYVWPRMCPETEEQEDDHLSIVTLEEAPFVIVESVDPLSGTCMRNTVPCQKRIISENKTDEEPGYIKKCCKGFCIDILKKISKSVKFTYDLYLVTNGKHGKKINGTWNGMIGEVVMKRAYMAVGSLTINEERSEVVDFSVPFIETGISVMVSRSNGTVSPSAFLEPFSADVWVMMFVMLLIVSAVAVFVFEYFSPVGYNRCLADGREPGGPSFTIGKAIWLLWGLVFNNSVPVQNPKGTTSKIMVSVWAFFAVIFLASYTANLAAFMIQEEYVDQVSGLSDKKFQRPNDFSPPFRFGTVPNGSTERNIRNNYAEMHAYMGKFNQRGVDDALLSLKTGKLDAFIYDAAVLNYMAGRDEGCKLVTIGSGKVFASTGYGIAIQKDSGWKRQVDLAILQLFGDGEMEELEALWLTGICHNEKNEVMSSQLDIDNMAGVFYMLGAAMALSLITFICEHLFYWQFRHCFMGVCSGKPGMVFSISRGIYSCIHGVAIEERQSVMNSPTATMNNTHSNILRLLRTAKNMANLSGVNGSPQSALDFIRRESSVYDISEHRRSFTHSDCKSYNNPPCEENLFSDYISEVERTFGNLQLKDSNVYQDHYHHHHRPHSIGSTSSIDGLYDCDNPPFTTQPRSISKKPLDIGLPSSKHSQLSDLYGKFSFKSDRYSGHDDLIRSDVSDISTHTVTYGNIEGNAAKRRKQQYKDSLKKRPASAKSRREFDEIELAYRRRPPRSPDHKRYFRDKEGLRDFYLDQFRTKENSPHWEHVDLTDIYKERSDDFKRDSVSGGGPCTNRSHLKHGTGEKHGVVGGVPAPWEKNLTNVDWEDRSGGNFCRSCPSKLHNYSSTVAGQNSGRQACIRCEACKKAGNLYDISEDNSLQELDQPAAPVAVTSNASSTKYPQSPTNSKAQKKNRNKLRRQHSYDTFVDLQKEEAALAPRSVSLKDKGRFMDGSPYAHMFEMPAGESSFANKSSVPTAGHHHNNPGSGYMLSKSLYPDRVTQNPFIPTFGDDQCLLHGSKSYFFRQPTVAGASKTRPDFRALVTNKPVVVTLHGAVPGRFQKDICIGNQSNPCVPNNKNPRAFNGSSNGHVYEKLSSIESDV
Chain of Glutamate receptor ionotropic, NMDA 2C (Rattus norvegicus, UniProt Q00961) (Q00961 whole entry): as the sequence (Q00961 whole entry, one chain of several) above
Chain of Translocator protein (P30536 whole entry): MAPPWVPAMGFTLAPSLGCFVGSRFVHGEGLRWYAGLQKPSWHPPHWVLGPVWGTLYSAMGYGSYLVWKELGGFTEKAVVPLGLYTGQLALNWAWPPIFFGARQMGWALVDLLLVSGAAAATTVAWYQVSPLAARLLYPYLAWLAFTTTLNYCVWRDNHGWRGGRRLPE

Row | SMILES | pEC50 [5] | pEC50 [6] | pEC50 [7] | further results
1 | CC(C)[C@@H](O)CC[C@@H](C)[C@H]1CC[C@H]2[C@@H]3CC=C4C[C@@H](O)CC[C@]4(C)[C@H]3CC[C@]12C |  |  |  | pEC50 (Glutamate NMDA receptor): 5.92
2 | CCCc1nc2[nH]c(C)c(NS(=O)(=O)c3ccc(C4CCCCC4)cc3)c(=O)n2n1 |  |  |  | pEC50 [1]: 5.52; pEC50 [2]: 5.52; pEC50 [3]: 5.52; pEC50 [4]: 5.52
3 | Cc1sc2ncn(CC(=O)N3CC(C)(F)C3)c(=O)c2c1-c1ccc2c(c1)OC(F)(F)O2 | 4.89 | 4.89 | 5.55 | 
4 | Cc1sc2ncn(CC(=O)N3CC(C)(F)C3)c(=O)c2c1-c1cc(F)cc(Cl)c1 | 5.13 | 5.03 | 5.80 | 
5 | Cc1sc2ncn(CC(=O)N3CC(C)(F)C3)c(=O)c2c1-c1ccc(F)c(Cl)c1 | 5.68 | 5.92 | 6.15 | 
6 | Cc1sc2ncn(CC(=O)N3CCCC3)c(=O)c2c1-c1cccc(Br)c1 |  |  |  | solubility kinetic [8]: > 100 µM; microsomal CLint at 0.5 h, 3 µM (in vitro): 50 µL/min/mg; half-life [9]: > 4 h; half-life [10]: > 4 h; pEC50 [11]: 4.92; pEC50 [12]: 5.00; half-life [13]: > 4 h; pEC50 [14]: 4.74
7 | C#CC1(F)CN(C(=O)Cn2cnc3sc(C)c(-c4cccc(Br)c4)c3c2=O)C1 |  |  |  | EC50 [15]: Not_active; EC50 [16]: Not_active; EC50 [17]: Not_active
8 | CC1(F)CN(C(=O)Cn2cnc3sc(C(F)(F)F)c(-c4ccc(F)c(Br)c4)c3c2=O)C1 | 5.21 | 5.49 | 5.64 | 
9 | CC1(F)CN(C(=O)Cn2cnc3sc(C#N)c(-c4ccc(F)c(Br)c4)c3c2=O)C1 | 6.05 | 6.03 | 6.44 | solubility kinetic [8]: 45 µM (≈ 21.6 µg/mL); efflux ratio [18]: 4.66; microsomal CLint at 0.5 h, 3 µM (in vitro): 16 µL/min/mg; half-life [9]: > 4 h; half-life [10]: > 4 h; half-life [13]: > 4 h; Papp [19]: 9.36 ×10⁻⁶ cm/s
10 | Cc1sc2ncn(CC(=O)N3CC(C)(F)C3)c(=O)c2c1-c1cc(Cl)ccc1F | 5.35 | 5.41 | 5.82 | 
11 | Cc1sc2ncn(CC(=O)N3CC(C)(F)C3)c(=O)c2c1-c1ccc2ccn(C)c2c1 |  |  | 5.00 | 
12 | C#Cc1sc2ncn(CC(=O)N3CC(C)(F)C3)c(=O)c2c1-c1ccc(F)c(Br)c1 | 5.96 | 6.09 | 6.24 | pKi (Translocator protein): 6.26
13 | Cc1sc2ncn(CC(=O)N3CC[C@@H](O)C3)c(=O)c2c1-c1cccc(Br)c1 |  |  |  | EC50 [15]: Not_active; EC50 [16]: Not_active; EC50 [17]: Not_active
14 | Cc1sc2ncn(CC(=O)N3CC(C)(F)C3)c(=O)c2c1-c1ccc(F)c(OC(C)C)c1 | 5.24 | 5.28 | 5.70 | 
15 | Cc1sc2ncn(CC(=O)N3CC(C)(F)C3)c(=O)c2c1-c1cccc(OC(F)(F)F)c1 | 5.38 | 5.59 | 5.96 | 
16 | Cc1sc2ncn(CC(=O)N3CC(C)(F)C3)c(=O)c2c1-c1ccc2ccccc2c1 | 5.20 | 5.52 | 5.70 | 
17 | CC1(F)CN(C(=O)Cn2cnc3scc(-c4ccc(F)c(Br)c4)c3c2=O)C1 | 5.68 | 6.06 | 6.13 | solubility kinetic [8]: 33 µM (≈ 15 µg/mL); efflux ratio [18]: 2.04; microsomal CLint at 0.5 h, 3 µM (in vitro): 14 µL/min/mg; half-life [9]: > 4 h; half-life [10]: > 4 h; half-life [13]: > 4 h; Papp [19]: 16.6 ×10⁻⁶ cm/s
18 | CCc1sc2ncn(CC(=O)N3CC(C)(F)C3)c(=O)c2c1-c1ccc(F)c(Br)c1 | 5.33 | 5.50 | 5.74 | 
19 | Cc1sc2ncn(CC(=O)N3CC(C)(F)C3)c(=O)c2c1-c1ccc(F)c(C(F)(F)F)c1 | 5.62 | 5.80 | 6.22 | 
20 | Cc1sc2ncn(CC(=O)N3CC(C)(F)C3)c(=O)c2c1-c1ccc(Cl)c(Cl)c1 | 6.00 | 6.07 | 6.39 | 
21 | Cc1sc2ncn(CC(=O)N3CC(C)(F)C3)c(=O)c2c1-c1ccc(F)c(C#N)c1 | 5.32 | 5.38 | 5.89 | 
22 | Cc1sc2ncn(CC(=O)N3CC(C)(F)C3)c(=O)c2c1-c1ccc(Cl)c(F)c1 | 5.25 | 5.35 | 5.77 | 
23 | Cc1sc2ncn(CC(=O)N3CC(C)(F)C3)c(=O)c2c1-c1cccc(Cl)c1F | 5.16 | 5.28 | 5.70 | 
24 | C[C@H](CC[C@](C)(O)C(F)(F)F)[C@H]1CC[C@H]2[C@@H]3CC=C4C[C@@](C)(O)CC[C@]4(C)[C@H]3CC[C@]12C [DALZANEMDOR] |  |  |  | pEC50 [20]: 7.10; pEC50 [21]: 7.10; pEC50 [22]: 7.10
25 | C[C@@H](O)[C@@H](C(N)=O)N1C[C@@]2(CCCN2C(=O)OC(C)(C)C)C1=O [ZELQUISTINEL] |  |  |  | pEC50 [23]: 5.01; pEC50 [24]: 5.01

Further lines, with some results ahead:

Row | pEC50 [5] | pEC50 [6] | pEC50 [7] | SMILES | further results
26 | 4.89 | 5.18 | 5.60 | Cc1sc2ncn(CC(=O)N3CCC(C)C3)c(=O)c2c1-c1cccc(Br)c1 (stereo not given) | 
27 | 5.44 | 5.62 | 6.01 | CCC1(F)CN(C(=O)Cn2cnc3sc(C)c(-c4cccc(Br)c4)c3c2=O)C1 | 
28 | 4.96 | 4.89 |  | CCCC1(F)CN(C(=O)Cn2cnc3sc(C)c(-c4cccc(Br)c4)c3c2=O)C1 | EC50 [15]: Not_active
29 | 5.55 | 5.70 | 6.11 | Cc1sc2ncn(CC(=O)N3CC(C)(F)C3)c(=O)c2c1-c1cccc(Br)c1 | 
30 | 5.31 | 5.66 | 5.92 | Cc1sc2ncn(CC(=O)N3CC(C)(F)C3)c(=O)c2c1-c1cccc(Cl)c1 | 
31 |  |  | 4.85 | Cc1sc2ncn(CC(=O)N3CC[C@@H](F)C3)c(=O)c2c1-c1cccc(Br)c1 | 
32 | 5.42 | 5.66 | 5.96 | Cc1sc2ncn(CC(=O)N3CC(C)(F)C3)c(=O)c2c1-c1cccc(C(F)(F)F)c1 | 
33 | 4.96 | 5.28 | 5.55 | Cc1sc2ncn(CC(=O)N3CC(C)(C)C3)c(=O)c2c1-c1cccc(Br)c1 | 
34 | 5.27 | 5.43 | 5.70 | Cc1sc2ncn(CC(=O)N3CC(F)(C4CC4)C3)c(=O)c2c1-c1cccc(Br)c1 | 
35 | 4.93 | 5.17 | 5.59 | Cc1sc2ncn(CC(=O)N3CCC(F)(F)C3)c(=O)c2c1-c1cccc(Br)c1 | 
36 | 4.89 | 5.04 | 5.54 | Cc1sc2ncn(CC(=O)N3CCC(C)(F)C3)c(=O)c2c1-c1cccc(Br)c1 (stereo not given) | 
37 |  | 4.92 | 5.12 | Cc1sc2ncn(CC(=O)N3CC(C)C3)c(=O)c2c1-c1cccc(Br)c1 | 
38 |  |  | 4.68 | Cc1sc2ncn(CC(=O)N3CCC[C@@H]3C)c(=O)c2c1-c1cccc(Br)c1 | 
39 | 5.96 | 6.20 | 6.48 | Cc1sc2ncn(CC(=O)N3CC(C)(F)C3)c(=O)c2c1-c1ccc(F)c(Br)c1 | solubility kinetic [8]: 34 µM (≈ 15.9 µg/mL); efflux ratio [18]: 1.98; microsomal CLint at 0.5 h, 3 µM (in vitro): 29 µL/min/mg; half-life [9]: > 4 h; half-life [10]: > 4 h; half-life [13]: > 4 h; Papp [19]: 19.6 ×10⁻⁶ cm/s
40 | 4.60 | 4.92 | 4.82 | Cc1sc2ncn(CC(=O)N3CC[C@H](F)C3)c(=O)c2c1-c1cccc(Br)c1 | 
41 |  | 4.70 | 4.64 | Cc1sc2ncn(CC(=O)N3CCC3)c(=O)c2c1-c1cccc(Br)c1 | 
